Test results: the NIST ThermoML archive (doi:10.1016/j.fluid.2005.07.017)

Experiment: xn = mol fraction of the nth substance listed
Conditions: Liquid, Vibrating tube method

c1ccsc1 [thiophene] + O=C=O
Conditions | mass density [kg/m3]
322.95 K, 19000 kPa, x2 = 0.199 | 1032.53
322.96 K, 8142 kPa, x2 = 0.5661 | 964.89
322.96 K, 9024 kPa, x2 = 0.5661 | 967.04
322.96 K, 10004 kPa, x2 = 0.5661 | 969.41
322.96 K, 11043 kPa, x2 = 0.5661 | 971.85
322.96 K, 12049 kPa, x2 = 0.5661 | 974.11
322.96 K, 13009 kPa, x2 = 0.5661 | 976.27
322.96 K, 14014 kPa, x2 = 0.5661 | 978.41
322.96 K, 15031 kPa, x2 = 0.5661 | 980.61
322.96 K, 16040 kPa, x2 = 0.5661 | 982.75
322.96 K, 17014 kPa, x2 = 0.5661 | 984.76
322.96 K, 18012 kPa, x2 = 0.5661 | 986.77
322.96 K, 19036 kPa, x2 = 0.5661 | 988.76
323.01 K, 1047 kPa, x2 = 0 | 1028.97
323.01 K, 2059 kPa, x2 = 0 | 1029.98
323.01 K, 3070 kPa, x2 = 0 | 1031.02
323.01 K, 4047 kPa, x2 = 0 | 1031.99
323.01 K, 5002 kPa, x2 = 0 | 1032.9
323.01 K, 6005 kPa, x2 = 0 | 1033.9
323.01 K, 7068 kPa, x2 = 0 | 1034.92
323.01 K, 8021 kPa, x2 = 0 | 1035.81
323.01 K, 9013 kPa, x2 = 0 | 1036.76
323.01 K, 10005 kPa, x2 = 0 | 1037.67
323.01 K, 10991 kPa, x2 = 0 | 1038.62
323.01 K, 12034 kPa, x2 = 0 | 1039.58
323.01 K, 12977 kPa, x2 = 0 | 1040.44
323.01 K, 13999 kPa, x2 = 0 | 1041.38
323.01 K, 14991 kPa, x2 = 0 | 1042.26
323.01 K, 15995 kPa, x2 = 0 | 1043.17
323.01 K, 16998 kPa, x2 = 0 | 1044.03
323.01 K, 17983 kPa, x2 = 0 | 1044.93
323.01 K, 18951 kPa, x2 = 0 | 1045.78
323.06 K, 10088 kPa, x2 = 0.9217 | 726.5
323.06 K, 11019 kPa, x2 = 0.9217 | 748.28
323.06 K, 12026 kPa, x2 = 0.9217 | 766.89
323.06 K, 13007 kPa, x2 = 0.9217 | 781.83
323.06 K, 14004 kPa, x2 = 0.9217 | 794.96
323.06 K, 15030 kPa, x2 = 0.9217 | 806.9
323.06 K, 16054 kPa, x2 = 0.9217 | 817.45
323.06 K, 17033 kPa, x2 = 0.9217 | 826.57
323.06 K, 18006 kPa, x2 = 0.9217 | 835.18
323.06 K, 19038 kPa, x2 = 0.9217 | 843.46
323.06 K, 20051 kPa, x2 = 0.9217 | 850.95
323.06 K, 21005 kPa, x2 = 0.9217 | 857.68
323.06 K, 22019 kPa, x2 = 0.9217 | 864.36
323.06 K, 23033 kPa, x2 = 0.9217 | 870.67
323.06 K, 24027 kPa, x2 = 0.9217 | 876.59
323.06 K, 24980 kPa, x2 = 0.9217 | 882.14
323.08 K, 6997 kPa, x2 = 0.3818 | 994.07
323.08 K, 8053 kPa, x2 = 0.3818 | 995.85
323.08 K, 9009 kPa, x2 = 0.3818 | 997.45
323.08 K, 10081 kPa, x2 = 0.3818 | 999.25
323.08 K, 11041 kPa, x2 = 0.3818 | 1000.81
323.08 K, 12024 kPa, x2 = 0.3818 | 1002.4
323.08 K, 12998 kPa, x2 = 0.3818 | 1003.93
323.08 K, 14011 kPa, x2 = 0.3818 | 1005.51
323.08 K, 15018 kPa, x2 = 0.3818 | 1007.08
323.08 K, 15936 kPa, x2 = 0.3818 | 1008.44
323.08 K, 17059 kPa, x2 = 0.3818 | 1010.13
323.08 K, 17995 kPa, x2 = 0.3818 | 1011.52
323.08 K, 19010 kPa, x2 = 0.3818 | 1013.01
323.09 K, 8069 kPa, x2 = 0.6996 | 950.76
323.09 K, 9063 kPa, x2 = 0.6996 | 953.71
323.09 K, 10074 kPa, x2 = 0.6996 | 956.72
323.09 K, 11045 kPa, x2 = 0.6996 | 959.45
323.09 K, 11999 kPa, x2 = 0.6996 | 962.01
323.09 K, 13038 kPa, x2 = 0.6996 | 964.85
323.09 K, 14005 kPa, x2 = 0.6996 | 967.35
323.09 K, 14998 kPa, x2 = 0.6996 | 969.82
323.09 K, 16004 kPa, x2 = 0.6996 | 972.38
323.09 K, 17044 kPa, x2 = 0.6996 | 974.92
323.09 K, 17927 kPa, x2 = 0.6996 | 976.97
323.15 K, 101 kPa, x2 = 0 | 1026.98
332.79 K, 7987 kPa, x2 = 0.5661 | 943.05
332.79 K, 9035 kPa, x2 = 0.5661 | 945.99
332.79 K, 10035 kPa, x2 = 0.5661 | 948.77
332.79 K, 11015 kPa, x2 = 0.5661 | 951.37
332.79 K, 12021 kPa, x2 = 0.5661 | 953.97
332.79 K, 13022 kPa, x2 = 0.5661 | 956.49
332.79 K, 14010 kPa, x2 = 0.5661 | 958.85
332.79 K, 15020 kPa, x2 = 0.5661 | 961.27
332.79 K, 16037 kPa, x2 = 0.5661 | 963.66
332.79 K, 17014 kPa, x2 = 0.5661 | 965.85
332.79 K, 18001 kPa, x2 = 0.5661 | 968.08
332.79 K, 19018 kPa, x2 = 0.5661 | 970.3
332.85 K, 1015 kPa, x2 = 0 | 1016.93
332.85 K, 2035 kPa, x2 = 0 | 1018
332.85 K, 3004 kPa, x2 = 0 | 1019.06
332.85 K, 3964 kPa, x2 = 0 | 1020.05
332.85 K, 4991 kPa, x2 = 0 | 1021.14
332.85 K, 5081 kPa, x2 = 0.199 | 1002.75
332.85 K, 6001 kPa, x2 = 0 | 1022.17
332.85 K, 6051 kPa, x2 = 0.199 | 1004.04
332.85 K, 7014 kPa, x2 = 0 | 1023.21
332.85 K, 7075 kPa, x2 = 0.199 | 1005.38
332.85 K, 7998 kPa, x2 = 0 | 1024.2
332.85 K, 8033 kPa, x2 = 0.199 | 1006.63
332.85 K, 9006 kPa, x2 = 0.199 | 1007.88
332.85 K, 9009 kPa, x2 = 0 | 1025.23
332.85 K, 9995 kPa, x2 = 0 | 1026.19
332.85 K, 10006 kPa, x2 = 0.199 | 1009.13
332.85 K, 10989 kPa, x2 = 0 | 1027.18
332.85 K, 11013 kPa, x2 = 0.199 | 1010.42
332.85 K, 12006 kPa, x2 = 0 | 1028.17
332.85 K, 12053 kPa, x2 = 0.199 | 1011.71
332.85 K, 13009 kPa, x2 = 0 | 1029.18
